Source: patent US10905757B2, “Cross-reactive T cell epitopes of HIV, SIV, and FIV for vaccines in humans and cats” (priority 2012, dated 2021)
“Also recorded” adds a separate entry of the source. Ends that are not written are not given here.

Key:
[1] = system: FIV infection of naïve cat PBMC; assay: In vitro FIV enhancing/inhibitory (E/I) assay in PBMC from naïve SPF cats (RT titer); type: cell-based; settings: for effect on in vitro FIV infection: PBMC from naïve cats
Experimental: FIG. 35. FIV-enhancing versus inhibitory epitopes on peptides and MAPs used in pilot MAP Study. […] Abbreviation: MAP1 plus MAP2 mix (MAP1+2).
FIG. 36A and 36B. FIV/HIV-1 enhancing versus inhibitory epitopes. […] Four epitope peptides were tested in an in vivo efficacy study with prototype vaccine prime and MAP boosts against pathogenic FIV challenge (see MAP section).
To test the possibility that Fp4-3 peptide may be enhancing FIV infection, we performed an in vitro FIV enhancing/inhibitory analysis with all MAP peptides and immunogens. […]. Since MAP2 consisted of peptides FRT3-3 and FRT3-4 with a natural overlap (FIG. 34), such overlap may have blocked the enhancing activity of peptide FRT3-3 while allowing the inhibitory activity of peptide FRT3-4. […] Moreover, none of the MAP vaccinated cats had early detection or enhancement in viral load compared to the control cats. Perhaps, the strong immunity generated by the MAP2 has blocked the enhancing activity of the MAP1 when boosted together (Group 1, Table 3). To test this possibility, in vitro study is currently undergoing to evaluate whether MAP2 can block FIV enhancing activity of MAP1. Furthermore, more cats will be vaccinated with MAP 1b and MAP2 to determine the levels of cytotoxins generated to peptides Fp14-1, FRT3-3 and FRT3-4. Since these peptides have induced CTL-associated cytotoxin expression in T cells from HIV^+ subjects (FIGS. 31A-31B; FIG. 5 in (Sanou et al. 2013)), these EC peptides may also mediate their in vivo effects by inducing anti-FIV specific CTL activity.
However, only peptide Fp4-3 correlated with the in vitro enhancement induced by MAP1. Since the in vitro E/I assay uses PBMC from naïve specific pathogen free (SPF) cats, it is unlikely that the in vitro stimulation of anti-FIV CTLs occurred in the culture and eliminated the infected cells. More likely, these enhancing or inhibitory peptides induced cytokines (enhancement: IFNγ, TNFα, GM-CSF; inhibition: IFNα, IL10), chemokines (inhibition: MIP1α, MIP1β, SDF-1, RANTES), or cellular restriction factors (inhibition: Trim5α, APOBEC3g) that either enhanced or inhibited FIV/HIV-1 infection. […] IFNγ is produced during inflammatory responses to HIV-1 infection (Ipp and Zemlin 2013). Thus, high levels of antiviral cellular immune responses are needed while minimizing both non-specific and viral-specific activation of CD4^+ T cells which can enhance viral replication (Lane 2010). Removal of the enhancing epitopes on FIV and HIV-1 immunogens will be critical to produce an effective HIV-1 vaccine. To accomplish this goal, we will design a vaccine based on antiviral epitopes directed at inducing viral-specific CD4^+ CTLs, CD8^+ CTLs and polyfunctional T cells, and identifying viral enhancing epitopes to remove from vaccine candidates.

[2] = system: T cells from HIV− subjects; assay: CFSE-proliferation, CD8+ / CD4+ T cells from HIV− control subjects; type: cell-based, human
Experimental: Flow cytometry (FACS) for carboxyfluoresein diacetate succinimide ester (CFSE)-proliferation and intracellular cytotoxin staining (ICS). The CFSE-proliferation analysis was performed on PBMC according to the manufacturer's protocol (Invitrogen, Carlsbad, Calif.) and processed as previously described (Lichterfeld et al. (2004)). Modifications consisted of using 2.0-5.0×10^5 CFSE-labeled cells stimulated for 5 days (37° C., 5% CO^2) with 30 μg/well of total peptides in a pool (15 μg/well for individual peptide, Table 10) or 5 μg/mL PHA in AIM V medium containing 25 μg/mL of gentamycin and 10% heat-inactivated human serum. Subsequently these cells were harvested and labeled with the LIVE/DEAD fixable yellow dye (Invitrogen) and then treated 5 min with anti-CD16/CD32 antibody (Biolegend, San Diego, Calif.) for blocking non-specific binding before phenotype-specific antibodies. The following antibodies were used for the CFSE-proliferation analysis: anti-CD4 APC, anti-CD3 APC-H7, and anti-CD8 Pacific Blue (BD Biosciences, San Jose, Calif.).
(§1) In both analyses, 1.0-2.0×10^4 cells were fixed in phosphate-buffered saline (PBS) containing 2% paraformaldehyde and analyzed on BD LSRII using […] Software (BD Biosciences), with a positive threshold of 3% CFSE^low for CFSE-proliferation and 1% T cells expressing cytotoxin for ICS. The final value for each subject was derived after subtraction of the subject's medium control and the average value of peptide-stimulated cells from uninfected control subjects.
(§2) Flow cytometry (FACS) for measuring CFSE-proliferation and intracellular cytokine staining (ICS). Carboxyfluorescein diacetate succinimide ester (CFSE)-proliferation analysis was performed according to the manufacturer's protocol (Invitrogen) and processed as previously described (Lichterfeld et al. 2004) using the following modification: 2.5-5.0×10^5 CFSE-labeled PBMC stimulated for 4-5 days (37° C., 5% CO2) with 15-30 μg of peptides in culture media (AIM V medium, 25 μg/mL gentamycin, and 10% heat-inactivated fetal bovine serum). The ICS analysis was performed as previously described (Horton et al. 2007; Pattacini et al. 2012).
(§3) The antibodies used for the proliferation analysis consisted of anti-CD4 allophycocyanin (APC) anti-CD3 APC-H7, and anti-CD8 Pacific Blue, and those for ICS were anti-CD3 APC-H7, anti-CD4 BD Horizon V450, anti-CD8 FITC, anti-granzyme B (GrzB) Alexa 700, anti-granzyme A (GrzA) PE (BD Biosciences, Cat #555349, 560176, 558207, 560345, 555366, 560213, 558904), and anti-perforin PerCP (Abcam, Cat #ab86319). Both analyses were performed with BD LSRII and […]™ Software (BD Biosciences), using a positive threshold of >1% CFSE^low for CFSE-proliferation except for ICS studies with threshold of >0.1% T cells expressing cytotoxin. The final value for each subject was derived after subtracting the result of each HIV^+ subject with the media control followed by subtraction with the average response of the media-control subtracted HIV^− subjects.

[3] = system: CD4+ or CD8+ T cells from HIV+ subjects; assay: Intracellular cytotoxin staining (ICS), CD4+ or CD8+ T cells from HIV+ responders; type: cell-based, human; settings: for cytotoxin and CD107a expression in CD4+ and CD8+ T cells (in words): p24 peptides; for Cytotoxins: responders to Fp9 or Fp14 peptide pools
Experimental: Briefly, 1×10^6PBMCs (freshly isolated) are stimulated with 20 μg of peptides for 6 hours in a total volume of 200 μL in a 96-well plate in presence of Golgi transport inhibitor (37° C., 5% CO2). […] Cells were stained with the LIVE/DEAD® fixable yellow dye (Invitrogen, Eugene, Oreg.). […] The flow cytometry data is collected using BD LSRII and analyzed with the FACS DIVA software.
The cells were subsequently fixed and permeabilized with Cytofix/Cytoperm solution (BD Biosciences) before reaction with anti-cytotoxin antibodies. The antibodies consisted of anti-CD3 APC-H7, anti-CD4 BD Horizon V450, and anti-CD8 FITC followed by anti-GrzB Alexa 700 and anti-GrzA PE (all from BD Biosciences), and anti-perforin PerCP (Abcam, Boston, Mass.).
as §1
Flow cytometry (FACS) for measuring CFSE-proliferation and intracellular cytokine staining (ICS).
Both analyses were performed with BD LSRII and […]™ Software (BD Biosciences), using a positive threshold of >1% CFSE^low for CFSE-proliferation except for ICS studies with threshold of >0.1% T cells expressing cytotoxin.

[4] = system: CD4+ T cells from HIV+ subjects; assay: Intracellular cytotoxin staining (ICS), CD4+ T cells from HIV+ subjects; type: cell-based, human; set-up: key to CD4^+ T-cell cytotoxins (4C): positive (+); negative (−) response; inhibitory (↓); not done (n); settings: for CD4^+ T-cell cytotoxins (4C): HIV^+ subjects compared to HIV^− control group; for cytotoxin expression in CD4+ T cells (in words): ST/ART− subjects
Experimental: (§4) Briefly, 1×10^6PBMCs (freshly isolated) are stimulated with 20 μg of peptides for 6 hours in a total volume of 200 μL in a 96-well plate in presence of Golgi transport inhibitor (37° C., 5% CO2). The cells are processed as previously described (Horton et al. (2007)). Cells were stained with the LIVE/DEAD® fixable yellow dye (Invitrogen, Eugene, Oreg.). The monoclonal antibodies fluorochome-conjugated to human cytokines used are: APC-H7 to CD3 (clone SK7); BD Horizon V450 to CD4 (clone RPA-T4); Qdot to CD8 (clone 3B5); PE-cy7 to IFN-γ (clone 4S.B3); APC to IL-2 (clone MQ1-17H12) PerCP to perforin (clone B-D48); Alexa F1.700 to granzyme-B (clone GB11) and PE to granzyme-A (clone CB9). The flow cytometry data is collected using BD LSRII and analyzed with the FACS DIVA software.
(§5) The ICS analysis (Horton et al. (2007)) involved stimulating 0.5-1.0×10^6 freshly isolated PBMC for 6 h with the same peptide stimulant and culture conditions as the proliferation analysis in the presence of 1 μg/mL of Golgi transport inhibitor and monensin followed by labeling with LIVE/DEAD fixable yellow dye and then treatment with anti-CD16/CD32 antibody and T-cell phenotypic antibodies. The cells were subsequently fixed and permeabilized with Cytofix/Cytoperm solution (BD Biosciences) before reaction with anti-cytotoxin antibodies. The antibodies consisted of anti-CD3 APC-H7, anti-CD4 BD Horizon V450, and anti-CD8 FITC followed by anti-GrzB Alexa 700 and anti-GrzA PE (all from BD Biosciences), and anti-perforin PerCP (Abcam, Boston, Mass.).
as §1, §2, §3

[5] = system: CD8+ T cells from HIV+ subjects; assay: Intracellular cytotoxin staining (ICS: perforin, GrzA, GrzB, CD107a), CD8+ T cells from HIV+ subjects; type: cell-based, human; set-up: key to CD8^+ T-cell cytotoxins (8C): positive (+); negative (−) response; inhibitory (↓); not done (n); settings: for CD8^+ T-cell cytotoxins (8C): HIV^+ subjects compared to HIV^− control group; for HIV+ subjects whose CD8+ T cells responded with one or more cytotoxins: five HIV+ subjects, individual 13-15mer peptides
Experimental: as §4, §5, §1, §2, §3

Substance | T-cell proliferation in HIV− subjects (in words) [2] | Cytotoxins [3] | cytotoxin expression in CD4+ T cells (in words) [4] | cytotoxin expression / CTL-associated activity in CD8+ T cells (in words) [5] | further results
KKKSGKWRLLIDFRVLNKL [MAP2] | – | – | – | – | effect on in vitro FIV infection [1]: significantly inhibited; also recorded: inhibition
concanavalin A [ConA, reference compound] | – | – | – | – | average RT titer ([1]; FIV-enhancing mitogen control, 1:10000 dilution): 54,634 cpm/mL
VKNWMTETLLVQNAN [Hp15-3] | inducers | – | – | – | cytotoxin and CD107a expression in CD4+ and CD8+ T cells (in words) [3]: high levels and frequency of cytotoxin responses; CD4^+ T-cell cytotoxins (4C) [4]: +; CD8^+ T-cell cytotoxins (8C) [5]: +
VKNWMTETL [Hp15-2/3a] | did not stimulate | – | – | – | cytotoxin and CD107a expression in CD4+ and CD8+ T cells (in words) [3]: high cytotoxin and CD107a expression; also recorded: induced expression in both
RMQCRAWYL [Fp9-3c] | not | Extremely Low Cytotoxins | very little cytotoxin expression | – | –
ARMQCRAWY [Fp9-3d] | not | Moderate Cytotoxins (only CD8) | very little cytotoxin expression | more cytotoxins | –
RAEQASQEVKNWMTE [Hp15-1] | not | High Cytotoxins (The cytotoxin result is considered high when four or five subjects express one or more cytotoxins in the CD8^+ T cells) | – | robust cytotoxin levels and responder frequencies | CD4^+ T-cell cytotoxins (4C) [4]: +; CD8^+ T-cell cytotoxins (8C) [5]: +; HIV+ subjects whose CD8+ T cells responded with one or more cytotoxins [5]: five
DQEQNTAEVKLYLK [MAP1b, palmitated multiple antigenic peptide with FIV p24-peptide Fp14-1 alone] | – | – | – | – | effect on in vitro FIV infection [1]: no significant in vitro effect
FAPARMQCRAWYLEA [Fp9-3] | proliferated | High Cytotoxins (The cytotoxin result is considered high when four or five subjects express one or more cytotoxins in the CD8^+ T cells) | very little cytotoxin expression | more cytotoxins; also recorded: highest frequency of responders | HIV+ subjects whose CD8+ T cells responded with one or more cytotoxins [5]: up to four
